From patent EP2616456B1, “NUCLEAR EXPORT INHIBITORS” (Universitätsmedizin der Johannes Gutenberg-Universität Mainz, priority 2010, dated 2012)
pIC50: −log10 of the molar value. Entries after “also recorded” stand apart in the source; their conditions may differ.

What was measured:
HeLa cells = experiment: Cell viability (CellTiter-Glo) and cell death, HeLa; assay type: cell-based; conditions: Homo sapiens; compound concentration reducing HeLa cell viability by 50%
Protocol: To test the anti-cancer activity of the compounds, several cancer cell lines, currently used as models for different epithelial cancers and leukemias, were treated with the indicated inhibitors. […] Every 24h, the cell culture medium was replaced by fresh compound-containing medium. 72h post treatment, cell were analyzed by adding 100µl CellTiter-Glo® assay reagent (Promega). Luminescence was measured with a LuminoskanAscent device (ThermoScientific). Cells treated with a corresponding amount of DMSO only were use as a control. The luminescence (equals cell viability) of said control was set to 100%.
(§1) IC50 value corresponds to compound concentration reducing HeLa cell viability by 50%. Topt is the time point post treatment when maximum nuclear export inhibition was observed by fluorescence microscopy. Table 4: Functional characteristics of nuclear export inhibitors
(§2) It was assessed whether the export inhibitors also affect the viability of non-malignant human cells, precluding their potential (pre)clinical use. 10^3 freshly isolated non-malignant primary human fibroblasts (HTF-8) or HeLa cells/well were seeded and 24h later treated with the indicated compounds (final concentration: 100µM). Every 24h cell culture medium was replaced by freshly prepared compound-containing medium. 72h post treatment the cells were analyzed by adding 100µl CellTiter-Glo® assay reagent, and luminescence measured with a LuminoskanAscent (ThermoScientific). Cells treated with DMSO only were used as a control. The fluorescence measured (equals cell viability) with said control was set to 100%.

HIV-1 Rev protein = experiment: Nuclear export of HIV-1 Rev-GFP in actinomycin D treated HeLa cells; assay type: cell-based; conditions: 25µM
Description: The HIV-1 Rev protein transports unspliced and incompletely spliced viral RNAs from the nucleus into the cytoplasm (Stauber et al., 1995). As such, Rev's export function is crucial for viral replication and AIDS development (Pavlakis and Stauber, 1998; Stauber et al., 1995).

RevNES-biosensor = RevNES-biosensor translocation (NES-mediated nuclear export) in living HeLa cells, fluorescence microscopy; assay type: cell-based; conditions: for Cellular localization of green fluorescent RevNES-biosensor: HeLa
Protocol: The activity of compounds C3, C5 and C24 to inhibit NES-mediated nuclear export in living cells was analyzed as described in Fetz et al., 2009 using living HeLa (cervix carcinoma), FaDu (head and neck cancer), MDA-MB231 (mammacarcinoma) and SW480 cells (colon cancer) which transiently expressed the RevNES-biosensor. The RevNES-biosensor is a fusion protein composed of (from N to C terminus) the SV40 large T-antigen nuclear localization signal (NLS), glutathion-S-transferase (GST), green fluorescent protein (GFP) and the nuclear export signal (NES) of the HIV-1 (human immunodeficiency virus) Rev protein (RevNES).
The cells of the control were treated with a corresponding amount of DMSO only. The cellular localization of RevNES-biosensor was monitored by fluorescence microscopy. […] Maximum of cellular accumulation was observed after 1h (C24), after 2h (C3) and after 5h (C5), respectively. […] Thus, the inhibitory activity of C3 and C24 (reversible) but not of C5 (irreversible) was reversed after 24h. Table 1: Cellular localization of green fluorescent RevNES-biosensor
Table 3: Cellular localization of green fluorescent RevNES-biosensor
as §1

HTF-8 = experiment: Viability (CellTiter-Glo) and cell death of non-malignant primary fibroblasts HTF-8; assay type: cell-based; conditions: HTF-8 non-malignant primary human fibroblasts, 100µM, 72h
Protocol: as §2, with “10^3 freshly isolated non-malignant primary human fibroblasts (HTF-8) or HeLa cells/well were seeded and 24h later treated with the indicated compounds (final concentration: 100µM).” left out

Survivin = experiment: Nuclear export of Survivin-GFP fusion transiently expressed in HeLa cells; assay type: cell-based; conditions: transient expression, 25µM
Protocol: The activity of compounds to inhibit the export of the oncologically relevant protein Survivin as well as of the HIV-1 Rev protein was analyzed.
Nuclear export of Survivin is crucial for its tumor promoting cytoprotective activity (Engels et al., 2007; Knauer et al., 2007a; Knauer et al., 2007b).

human CRM1 (Crm1-HA) = human CRM1 (Crm1-HA) (Homo sapiens, UniProt O14980); experiment: In vitro pull-down of Crm1-HA with GST-SurvivinNES-GFP beads; assay type: binding; conditions: preincubation 400nM, 30min at 4°C
Protocol: The binding of LMB and of compounds C3 and C5 to CRM1 was examined by in vitro pull-down assays as described by Stauber et al., 2006. Briefly, in vitro coupled transcription/translation was performed using the TNT reticulocyte lysate system (Promega, Madison, WI, USA) supplemented with methionine (Promega, Madison, WI, USA) and plasmid pCrm1_HA (1µg), encoding a hemagglutinin epitope-tagged version of human CRM1 (Crm1-HA), as the template. Equal amounts of the Crm1-HA TNT reaction were preincubated with either DMSO (negative control; 0.1%), LMB (400nM, final concentration), C3 (1 mM; final concentration) or C5 (1mM; final concentration) in binding-buffer containing 5mM MgCl2 (AppliChem, Darmstadt, Germany), 2mM GTP (PEQLAB, Erlangen, Germany), 50mM Hepes pH 7.9 (AppliChem, Darmstadt, Germany), 200mM KCI (AppliChem, Darmstadt, Germany), 0.4% Tween 20 (AppliChem, Darmstadt, Germany), supplemented with complete protease inhibitor cocktail (Roche, Mannheim, Germany) for 30min at 4°C. Subsequently, GST-Sepharose beads loaded with 25µg recombinant GST-SurvivinNES-GFP and 5µg GST-RanQ96L were added to each drug-treated TNT reaction. Recombinant GST-SurvivinNES-GFP and GST-RanQ96L were purified from bacteria as described by Stauber et al., 2006. Pull-down was performed for 4h at 4°C in a rotating wheel. Samples were then centrifuged (3500rpm, 1min, 4°C) to recover the GST-SurvivinNES-GFP beads with bound Crm1-HA. Beads were washed three times with binding-buffer (500µl each washing step, 3500rpm, 1min, 4°C). Finally, bound proteins were eluted by adding 25µl 2xSDS-sample buffer (250mM Tris-HCl pH 6.8; 2% w/v SDS, 20% glycerol, 2% β-mercaptoethanol, 0.002% w/v bromophenol blue) and incubating at 95°C for 2min. Samples were separated by SDS-gelelectrophoresis and analyzed by immunoblot analysis as described by Stauber et al., 2006. Crm1-HA was detected with HA specific antibodies (MMS-101R, Covance, New Jersey, USA). GFP served as the loading control and was visualized with GFP specific antibodies (sc-8334, Santa Cruz Biotechnology, Heidelberg, Germany).

Chain of human CRM1 (Crm1-HA) (O14980 whole entry): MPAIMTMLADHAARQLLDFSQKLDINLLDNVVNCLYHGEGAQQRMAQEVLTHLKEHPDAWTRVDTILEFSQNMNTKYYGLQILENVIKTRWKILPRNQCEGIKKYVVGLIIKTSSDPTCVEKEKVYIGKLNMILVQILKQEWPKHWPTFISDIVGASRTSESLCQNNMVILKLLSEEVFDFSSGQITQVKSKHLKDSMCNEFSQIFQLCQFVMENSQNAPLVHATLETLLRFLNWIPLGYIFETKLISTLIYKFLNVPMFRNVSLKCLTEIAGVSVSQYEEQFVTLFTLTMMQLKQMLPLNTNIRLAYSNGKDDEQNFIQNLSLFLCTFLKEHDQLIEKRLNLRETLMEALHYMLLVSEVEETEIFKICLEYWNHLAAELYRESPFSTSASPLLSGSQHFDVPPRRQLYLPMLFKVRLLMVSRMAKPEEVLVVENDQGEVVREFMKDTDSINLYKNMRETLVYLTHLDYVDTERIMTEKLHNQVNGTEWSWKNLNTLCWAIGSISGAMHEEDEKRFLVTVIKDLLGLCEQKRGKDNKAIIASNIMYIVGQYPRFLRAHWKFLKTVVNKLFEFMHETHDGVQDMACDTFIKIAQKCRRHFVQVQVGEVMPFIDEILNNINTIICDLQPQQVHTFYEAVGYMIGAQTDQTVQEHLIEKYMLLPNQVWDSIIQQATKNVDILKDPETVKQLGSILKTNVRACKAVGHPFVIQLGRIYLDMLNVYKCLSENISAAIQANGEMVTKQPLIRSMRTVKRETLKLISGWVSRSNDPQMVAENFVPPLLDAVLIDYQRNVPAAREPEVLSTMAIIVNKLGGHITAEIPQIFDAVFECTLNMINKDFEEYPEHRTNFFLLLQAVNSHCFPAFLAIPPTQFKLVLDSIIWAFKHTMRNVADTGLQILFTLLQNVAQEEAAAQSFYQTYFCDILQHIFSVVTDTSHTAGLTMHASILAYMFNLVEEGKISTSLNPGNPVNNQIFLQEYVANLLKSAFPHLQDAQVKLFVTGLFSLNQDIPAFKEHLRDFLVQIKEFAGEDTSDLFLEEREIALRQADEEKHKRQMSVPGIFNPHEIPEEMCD

Row | Structure (SMILES) | pIC50 (HeLa cells) | Localization of HIV-1 Rev-GFP (nuclear export of HIV-1 Rev protein) (HIV-1 Rev protein) | Cellular localization of green fluorescent RevNES-biosensor (RevNES-biosensor; 25µM, T = 24h) | Cellular localization of green fluorescent RevNES-biosensor (RevNES-biosensor; 25µM, at Topt) | Topt at 25µM (RevNES-biosensor; Table 4, 25µM, fluorescence microscopy) | Mode of Inhibition (RevNES-biosensor; reversal of export inhibition after 24h, C5: 5-12h observation) | viability compared to the control (HTF-8) | Localization of Survivin-GFP fusion (nuclear export of Survivin) (Survivin) | interaction of Crm1-HA with the export substrate GST-SurvivinNES-GFP (human CRM1 (Crm1-HA))
1 | NC(=O)c1c(NC(NC(=O)c2cccc(F)c2)(C(F)(F)F)C(F)(F)F)sc2c1CCC2 [Compound C24, 2-[[1,1,1,3,3,3-hexafluoro-2-[(3-fluorobenzoyl)amino]propan-2-yl]amino]-5,6-dihydro-4H-cyclopenta[b]thiophene-3-carboxamide] | 4.51 | restored the nuclear accumulation | predominantly localized in the cytoplasm | nuclear accumulation; also recorded: nucleus | ∼1h | reversible | do not affect viability | accumulated in the nucleus | –
2 | CCC(=C/[C@H](C)C/C=C/C(C)=C/[C@@H](C)C(=O)[C@@H](C)[C@H](O)[C@@H](C)C/C(C)=C/C(=O)O)/C=C/[C@@H]1OC(=O)C=C[C@@H]1C [LMB, leptomycin B, reference compound] | – | – | – | – | – | – | – | – | prevented the interaction
